ChEMBL document CHEMBL5385845, “Novel coumarin aminophosphonates as potential multitargeting antibacterial agents against Staphylococcus aureus” (Eur J Med Chem, 2023)
Values after ≈ are worked out from the molar mass of the structure shown.

Key:
Assay type in all cases: functional
Staphylococcus aureus [1] = assay: Antibacterial activity against Staphylococcus aureus ATCC 25923 assessed as inhibition of bacterial growth
Enterococcus faecalis = assay: Antibacterial activity against Enterococcus faecalis assessed as inhibition of bacterial growth
Pseudomonas aeruginosa [2] = assay: Antibacterial activity against Pseudomonas aeruginosa ATCC 27853 assessed as inhibition of bacterial growth
Staphylococcus aureus [3] = assay: Antibacterial activity against Staphylococcus aureus assessed as inhibition of bacterial growth
Staphylococcus aureus [4] = assay: Antibacterial activity against Staphylococcus aureus ATCC 29213 assessed as inhibition of bacterial growth
Staphylococcus aureus [5] = assay: Antibacterial activity against methicillin resistant Staphylococcus aureus N315 assessed as inhibition of bacterial growth
Acinetobacter baumannii = assay: Antibacterial activity against Acinetobacter baumannii assessed as inhibition of bacterial growth
Escherichia coli [6] = assay: Antibacterial activity against Escherichia coli assessed as inhibition of bacterial growth
Klebsiella pneumoniae = assay: Antibacterial activity against Klebsiella pneumoniae assessed as inhibition of bacterial growth
Pseudomonas aeruginosa [7] = assay: Antibacterial activity against Pseudomonas aeruginosa assessed as inhibition of bacterial growth
Escherichia coli [8] = assay: Antibacterial activity against Escherichia coli ATCC 25922 assessed as inhibition of bacterial growth
Escherichia coli [9] = assay: Synergistic antibacterial activity against Escherichia coli ATCC 25922 assessed as inhibition of bacterial growth in presence of compound 6f
Staphylococcus aureus [10] = assay: Synergistic antibacterial activity against Staphylococcus aureus assessed as inhibition of bacterial growth in presence of compound 6f
Staphylococcus aureus [11] = assay: Induction of drug resistance in Staphylococcus aureus assessed as fold increase in MIC measured for 23 passages

Structure (SMILES)	MIC (Staphylococcus aureus [1]) [µg/mL]	MIC (Enterococcus faecalis) [µg/mL]	MIC (Pseudomonas aeruginosa [2]) [µg/mL]	MIC (Staphylococcus aureus [3]) [µg/mL]	MIC (Staphylococcus aureus [4]) [µg/mL]	MIC (Staphylococcus aureus [5]) [µg/mL]	MIC (Acinetobacter baumannii) [µg/mL]	MIC (Escherichia coli [6]) [µg/mL]	MIC (Klebsiella pneumoniae) [µg/mL]	MIC (Pseudomonas aeruginosa [7]) [µg/mL]	MIC (Escherichia coli [8]) [µg/mL]	MIC (Escherichia coli [9]) [µg/mL]	MIC (Staphylococcus aureus [10]) [µg/mL]	fold change (FC) (Staphylococcus aureus [11])
CCOP(=O)(OCC)C(Nc1ccc2c(C(F)(F)F)cc(=O)oc2c1)c1cccc(O)c1 (stereo not given)	8 (≈ 17 µM)	16 (≈ 33.9 µM)	16 (≈ 33.9 µM)	16 (≈ 33.9 µM)	64 (≈ 136 µM)	32 (≈ 67.9 µM)	128 (≈ 272 µM)	256 (≈ 543 µM)	32 (≈ 67.9 µM)	32 (≈ 67.9 µM)	16 (≈ 33.9 µM)			
CCOP(=O)(OCC)C(Nc1ccc2c(CCl)cc(=O)oc2c1)c1cccc(O)c1 (stereo not given)	16 (≈ 35.4 µM)	32 (≈ 70.8 µM)	32 (≈ 70.8 µM)	16 (≈ 35.4 µM)	64 (≈ 142 µM)	64 (≈ 142 µM)	64 (≈ 142 µM)	64 (≈ 142 µM)	128 (≈ 283 µM)	128 (≈ 283 µM)	8 (≈ 17.7 µM)			
CCOP(=O)(OCC)C(Nc1ccc2c(C)cc(=O)oc2c1)c1ccc(O)c(OC)c1 (stereo not given)	64 (≈ 143 µM)	16 (≈ 35.8 µM)	64 (≈ 143 µM)	64 (≈ 143 µM)	128 (≈ 286 µM)	128 (≈ 286 µM)	128 (≈ 286 µM)	128 (≈ 286 µM)	256 (≈ 572 µM)	256 (≈ 572 µM)	64 (≈ 143 µM)			
CCOP(=O)(OCC)C(Nc1ccc2c(C)cc(=O)oc2c1)c1cc(O)c2c(c1)C(=O)c1cccc(O)c1C2=O (stereo not given)	4 (≈ 7.1 µM)	32 (≈ 56.8 µM)	8 (≈ 14.2 µM)	8 (≈ 14.2 µM)	8 (≈ 14.2 µM)	4 (≈ 7.1 µM)	16 (≈ 28.4 µM)	8 (≈ 14.2 µM)	32 (≈ 56.8 µM)	8 (≈ 14.2 µM)	4 (≈ 7.1 µM)			
CCOP(=O)(OCC)C(Nc1ccc2c(C)cc(=O)oc2c1)c1ccc(Cl)cc1 (stereo not given)	4 (≈ 9.18 µM)	64 (≈ 147 µM)	8 (≈ 18.4 µM)	256 (≈ 587 µM)	128 (≈ 294 µM)	128 (≈ 294 µM)	64 (≈ 147 µM)	128 (≈ 294 µM)	64 (≈ 147 µM)	16 (≈ 36.7 µM)	4 (≈ 9.18 µM)			
CCOP(=O)(OCC)C(Nc1ccc2c(C)cc(=O)oc2c1)c1ccc(C#N)cc1 (stereo not given)	256 (≈ 600 µM)	64 (≈ 150 µM)	128 (≈ 300 µM)	128 (≈ 300 µM)	64 (≈ 150 µM)	128 (≈ 300 µM)	128 (≈ 300 µM)	128 (≈ 300 µM)	128 (≈ 300 µM)	64 (≈ 150 µM)	128 (≈ 300 µM)			
CCOP(=O)(OCC)C(Nc1ccc2c(C)cc(=O)oc2c1)c1ccc(O)c(Br)c1 (stereo not given)	128 (≈ 258 µM)	128 (≈ 258 µM)	64 (≈ 129 µM)	64 (≈ 129 µM)	128 (≈ 258 µM)	256 (≈ 516 µM)	128 (≈ 258 µM)	64 (≈ 129 µM)	128 (≈ 258 µM)	32 (≈ 64.5 µM)	128 (≈ 258 µM)			
CCCCc1nc(Cl)c(C(Nc2ccc3c(C)cc(=O)oc3c2)P(=O)(OCC)OCC)[nH]1 (stereo not given)	16 (≈ 33.2 µM)	64 (≈ 133 µM)	256 (≈ 531 µM)	32 (≈ 66.4 µM)	256 (≈ 531 µM)	128 (≈ 266 µM)	128 (≈ 266 µM)	32 (≈ 66.4 µM)	128 (≈ 266 µM)	64 (≈ 133 µM)	64 (≈ 133 µM)			
CCCCc1nc(Cl)c(C(Nc2ccc3c(C)cc(=O)oc3c2)P(=O)(OCC)OCC)n1Cc1ccccc1F (stereo not given)	64 (≈ 108 µM)	128 (≈ 217 µM)	64 (≈ 108 µM)	128 (≈ 217 µM)	32 (≈ 54.2 µM)	64 (≈ 108 µM)	32 (≈ 54.2 µM)	32 (≈ 54.2 µM)	128 (≈ 217 µM)	256 (≈ 434 µM)	256 (≈ 434 µM)			
CCOP(=O)(OCC)C(Nc1ccc2c(C)cc(=O)oc2c1)c1ccc(O)c([N+](=O)[O-])c1 (stereo not given)	64 (≈ 138 µM)	64 (≈ 138 µM)	128 (≈ 277 µM)	32 (≈ 69.2 µM)	32 (≈ 69.2 µM)	256 (≈ 554 µM)	64 (≈ 138 µM)	64 (≈ 138 µM)	128 (≈ 277 µM)	32 (≈ 69.2 µM)	128 (≈ 277 µM)			
CCn1cc(C(=O)O)c(=O)c2cc(F)c(N3CCNCC3)cc21 [NORFLOXACIN]	8 (≈ 25.1 µM)	8 (≈ 25.1 µM)	4 (≈ 12.5 µM)	16 (≈ 50.1 µM)	16 (≈ 50.1 µM)	4 (≈ 12.5 µM)	8 (≈ 25.1 µM)	8 (≈ 25.1 µM)	1 (≈ 3.13 µM)	4 (≈ 12.5 µM)	16 (≈ 50.1 µM)	8	4	32
CCCCc1nc(Cl)c(C(Nc2ccc3c(C)cc(=O)oc3c2)P(=O)(OCC)OCC)n1Cc1ccc(Cl)cc1Cl (stereo not given)	32 (≈ 49.9 µM)	128 (≈ 200 µM)	256 (≈ 399 µM)	64 (≈ 99.9 µM)	128 (≈ 200 µM)	128 (≈ 200 µM)	128 (≈ 200 µM)	64 (≈ 99.9 µM)	128 (≈ 200 µM)	64 (≈ 99.9 µM)	128 (≈ 200 µM)			
